Reference: patent US10731187B2, “Recombinant strain producing O-aminobenzoate and fermentative production of aniline from renewable resources via 2-aminobenzoic acid” (Covestro Deutschland AG, priority 2014, dated 2020)

Experiments:
B. subtilis = assay: Shake flask growth (OD600) with supplementation of toxic substances; assay type: cell-based, Bacillus subtilis subsp. 168; conditions: 3 g/L oAB, pH 7 (MOPS), 100-mL shake flask, 25 h
Excerpt: (§1) Several strains commonly used industrial biotechnology were investigated regarding their natural tolerance towards oAB and to organic solvents in question for later product extraction (e.g. 1-dodecanol or octanol). Furthermore, the influence of the used pH value was investigated. It was known from previous experiments that at least for E. coli the toxicity of aromatic compounds depends strongly on the pH value, probably because protonated acids can much more efficiently penetrate the cell membrane and accordingly their toxicity rises severely. The extraction of oAB in an organic phase is supposed to work best at low pH values, close to the isoelectric point of oAB. The most relevant host strains considered were: Escherichia coli K12, Corynebacterium glutamicum DSM 20300 (=ATCC 13032), Pseudomonas putida KT2440, Bacillus subtilis subsp. 168, Saccharomyces cerevisiae DSM 70449, and Pichia pastoris X33 (DSM 70382).
(§2) To investigate the chosen strains towards the mentioned characteristics shake flasks and small scale fermentation experiments were performed and the organisms were supplemented with the toxic substances (aminobenzoates, solvents) at differed concentrations, different pH values, and the behaviour of the strains was studied. […]

E. coli = assay: as above; assay type: cell-based, Escherichia coli K12; conditions: already low concentrations
Excerpt: as §1, §2

[1] = system: Corynebacterium glutamicum; assay: Aminobenzoate stability in fermenter culture supernatants by HPLC-DAD; conditions: HPLC-DAD 254 nm
Excerpt: It had to be excluded that the aminobenzoates were degraded by the organism and therefor the growth is restored after the prolonged lag-phase. To investigate the aminobenzoate stability in the fermenters culture supernatant samples were collected during the fermentation and analyzed by HPLC-DAD (254 nm) (see FIG. 23 and Example 3).
In a further experiment the concentration of oAB was increased to investigate the effect on the C. glutamicum strain. The four fermenters were hereto supplemented with 0 g/L, 15 g/L, 35 g/L and 80 g/L of oAB. […] The rest of the cultivation conditions was kept as described above. […] Cultures supplemented with 15 g/L oAB have shown an extensive lag-phase over 34-48 h before growth was recovered and cells entered the exponential phase (see FIG. 24). […]
An Agilent 1100 series HPLC-DAD system (with diode array detector; Agilent Technologies, Santa Clara (USA)) was used to quantify oAB concentrations in culture supernatants. […] The following gradient with a flow rate of 0.5 mL/min was applied: 0-1 min, 2% B; 1-2 min, 2-10% B; 2-12 min, 10-70% B; 12-23 min, 70-90% B; 23-25 min, 90-98% B, 25-27 min, 98% B; 27-27.5 min, 98%-2% B; 27.5-30 min, 2% B. The oAB concentration was determined from the signal integration at 254 nm (retention time: 18.9 min) using an external calibration curve.

[2] = Solubility of AA in aniline; assay type: physicochemical
Excerpt: Aniline is a much better solvent for AA than dodecanol and, being also the product of the decarboxylation, its use presented great advantages compared to 1-dodecanol.

Nc1ccccc1C(=O)O [oAB, 2-aminobenzoic acid]
growth (OD600) (B. subtilis): strongly decreased
toxicity of o-aminobenzoate (E. coli): toxic
degradation during cultivation / fermentation [1]: excluded
AA that could be dissolved in aniline ([2]; 50° C.): up to 40%
AA that could be dissolved in aniline ([2]; 90° C.): up to 50%
AA that could be dissolved in aniline ([2]; room temperature (20° C.)): up to 30%
